Earlier results on one compound are cited in patent US20110305738A1, “Oxygenating Oral Compositions” (priority 2010, published 2011).

Experiment in series [1]: not given
The source holds these as a separate data set.

For the compound `NC(N)=O.OO` [Carbamide peroxide], the water solubility (at 20 °C) is 800 grams per liter. The “saturated solution concentration of carbamide peroxide” value (water at 20° C.) was 44.4%. For the same compound, the pH upon dissolution entry in series [1] (1% solution) was “approximately 4.05”. Besides, the “pH when solubilized in water” value in series [1] (saturated solution) was “approximately 3.40”.
